Data reported in PubChem BioAssay (NCI).
Several values for one entry are separate records, joined by “and”; a condition that tells them apart may be missing. Equal values may be shown once.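 Cultured in 96-well plates, cells were exposed to test compound for 48 hours across five concentrations. Abbreviation: GI50, concentration required for 50% inhibition of growth. TGI denotes the concentration required for complete inhibition of growth.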

Legend:
Experiment in all cases: DTP human tumour cell line panel, 48 h
SK-MEL-28 melanoma = system: SK-MEL-28 melanoma
SN12C renal = system: SN12C renal
EKVX NSCLC = system: EKVX NSCLC
PC-3 prostate = system: PC-3 prostate
HS 578T breast = system: HS 578T breast
HCT-116 colon = system: HCT-116 colon
MALME-3M melanoma = system: MALME-3M melanoma
UO-31 renal = system: UO-31 renal
SK-MEL-2 melanoma = system: SK-MEL-2 melanoma

Compound	TGI (SK-MEL-28 melanoma) [µM]	TGI (SN12C renal) [µM]	TGI (EKVX NSCLC)	TGI (PC-3 prostate) [µM]	TGI (HS 578T breast) [µM]	TGI (HCT-116 colon) [µM]	TGI (MALME-3M melanoma) [µM]	TGI (UO-31 renal) [µM]	TGI (SK-MEL-2 melanoma) [µM]	GI50 (EKVX NSCLC)	GI50 (SK-MEL-28 melanoma) [µM]	GI50 (SN12C renal) [µM]	GI50 (SK-MEL-2 melanoma) [µM]	GI50 (PC-3 prostate) [µM]	GI50 (HS 578T breast) [µM]	GI50 (MALME-3M melanoma) [µM]	GI50 (UO-31 renal) [µM]
O=[N+]([O-])C(=C(N1CCCCC1)N1CCCCC1)/C(Cl)=C(\Cl)Br	41.4	> 100	37.1 µM	60.3	45.4	41.7	64.9	> 100									
COC(=O)c1c(C)cccc1/C=C1/Cc2c(C)cccc2C1=O	> 100	> 100	> 100 µM	> 100	> 100	> 100	> 100	> 100									
CC(C)=CCc1c2c(c3occ(-c4ccc(O)c(O)c4)c(=O)c3c1O)C=CC(C)(C)O2	8.66	3.07	17.3 µM	3.45	3.73	4.29	2.53	2.9	11.1								
CSC1CC2C(CC1(C)O)C2(C)C (stereo not given)	> 100	> 100	92.1 µM and > 100 µM			> 100	> 100	> 100	> 100	13.3 µM and > 100 µM							
O=c1cc(/C=C/c2ccc(O)c(O)c2)oc(/C=C/c2ccc(O)c(O)c2)c1	31.6	16	18.1 µM	17.6	65.9	15.5	19.1	15.8	9.97								
Nn1c(CCCCCCCCc2nnc(COc3c(O)ccc4ccccc34)n2N)nnc1COc1c(O)ccc2ccccc12	> 100	> 100	> 100 µM	> 100		> 100	> 100	> 100	> 100								
CN(C)c1nc(=NCc2ccncc2)ss1	> 93.9	36	> 100 µM	> 63.4	70.3	40.7	> 31.6	> 80.9									
O=C(CN1CCCCC1)CC(O)(C(F)(F)F)C(F)(F)F	> 100		> 100 µM	> 100	> 100	> 100	> 100	> 100	> 100								
CCSC1=CC(=O)c2nc3ccccc3c3ccnc1c23	25.3	8.43	7.59 µM	> 23.3	14.7	> 25.1	3.32	19	5.6								
Cc1ccc(S(=O)(=O)Oc2cc(N)c3c(n2)CCC3)cc1	> 100	> 100	> 100 µM	> 100	> 100	> 100		> 100	> 100								
COc1ccc(N2C(=O)c3c4c(c5c([nH]c6ncccc65)c3C2=O)CCC(C(C)(C)C)C4)cc1 (stereo not given)	> 100	> 100	> 100 µM	> 100	72.2	> 100		> 100									
CC(C)(C)NC(=O)[C@H]1CC[C@H]2[C@@H]3CC=C4NC(=O)CC[C@]4(C)[C@H]3CC[C@]12C	> 100	> 100	> 100 µM	> 100	> 100	> 100	> 100	> 100	> 100								
CC(C)(C)C1=Cc2cc3cc(C(C)(C)C)[nH]c(=O)c3cc2S(=O)(=O)N1	> 100	> 100	44.1 µM			42.8	57.7	35.8	38.2								
COc1ccc(CC(CO)NC(=O)OCc2ccccc2)cc1Oc1ccc(CC(CO)NC(=O)OCc2ccccc2)cc1 (stereo not given)	54.9	39.3	19.1 µM	27.1		32.3	31.4	31.4	32.4								
NC(CSCc1ccccc1)C(=O)O (stereo not given)	> 100	> 100	> 100 µM	> 100	> 100	> 100	> 100	> 100	> 100								
CCOP(=O)(OCC)C1C(CO)OC(n2ccc(=O)[nH]c2=O)C1O (stereo not given)	> 100	> 100	> 100 µM	> 100	> 100	> 100	> 100	> 100	> 100								
O=C1/C(=C/c2ccccc2S)N=C(c2ccccc2)N1c1nc2ccc(Sc3ccccc3)cc2[nH]1	> 100	99.1	> 100 µM	> 100	72.6	> 100	> 100	> 100	36.2								
Cc1ccccc1OC(C)C(=O)NN1C(=O)CC(=O)N(c2ccc(Cl)cc2)C1=S (stereo not given)	> 100	> 100	> 100 µM	> 100	> 100	53	> 100	> 100	> 100								
C=C(Cl)/C(=C\Cl)CCC(Br)C(C)C (stereo not given)	> 100	> 100	> 100 µM	> 100	> 100	> 100		> 100	> 100								
OC[C@@H](O)[C@H]1NC[C@@H](O)[C@H]1O	> 100	> 100	> 100 µM	> 100	> 100	> 100	> 100	> 100									
Oc1ccc(-c2nnc3sc(-c4ccc(F)cc4)nn23)cc1	> 100	> 100	> 100 µM	> 100	40.2		> 100	> 100	> 100	70.8 µM	> 100	42.5	> 100	> 100	16.1	> 100	> 100
COC(=O)NN(C(=O)OC)c1c(-c2ccccc2)nc(SC)n1N	> 100	> 100	> 100 µM	> 100	> 100	> 100	> 100	> 100	> 100								
O=C(Nc1cccc2cnccc12)c1cc2c(cc1Cl)Sc1nccn1S2(=O)=O	53.1	30.5	52.8 µM	> 100	73.7	20	38.7	55.6	32.2								
